Test results taken from patent US9290457B2, “Substituted dihydropyrimidinones and their use as inhibitors of neutrophil elastase activity” (Boehringer Ingelheim International GmbH, priority 2014, dated 2016).
pIC50: −log10 of the molar value.

Columns and labels:
cytochrome P450 2C9 = cytochrome P450 2C9 (Homo sapiens (Human), UniProt P11712); test: Cytochrome P450 2C9 inhibition; assay type: in vitro ADME; settings: human liver microsomes, Diclofenac hydroxylation; read-out: IC50 CYP2C9 inhibition
Experimental: Assay for Determination of Cytochrome P450 2C9 Inhibition
All assays are carried out on a robotic system in 96 well plates. The final incubation volume contains TRIS buffer (0.1 M), MgCl2 (5 mM), human liver microsomes (0.1 mg/ml), Diclofenac (10 μM) and the test compound at five different concentrations or no compound (high control) in duplicate (e.g. highest concentration 10-50 μM with subsequent serial 1:4 dilutions). Following a short preincubation period, reactions are started with the cofactor (NADPH, 1 mM) and stopped by cooling the incubation down to 8° C. and subsequently by addition of one volume of acetonitrile. An internal standard solution—usually the stable isotope of the formed metabolite—is added after quenching of incubations. Peak area analyte (=metabolite formed) and internal standard is determined by LC-MS/MS. The resulting peak area ratio analyte to internal standard in these incubations is compared to a control activity containing no test compound.
If the inhibition of the reaction is already >50% at the lowest concentration of the test compound, the IC50 is assigned “<lowest concentration tested” (usually <0.4 μM). If the inhibition of the reaction is still <50% at the highest concentration of the test compound, the IC50 is assigned “>highest concentration tested” (usually >50 μM).

hERG potassium channel = hERG potassium channel (Homo sapiens (Human), UniProt Q12809); test: hERG inhibition patch clamp assay; assay type: cell-based; settings: human, @ 10 μM
Source text: Calculations: Fold induction=(Enzyme mRNA Compound)/(Enzyme mRNA Solvent Control) Inducer Potency=(Fold Compound)/(Fold Rifampicin)*100 Assay for Determination of hERG Inhibition
The inhibition of the hERG (human ether-a-go-go-related gene) potassium channel can be determined as described in Rast, G., & Guth, B. D., Journal of Pharmacological and Toxicological Methods (2014), http://dx.doi.org/10.1016/j.vasen.2014.08.001.

cytochrome P450 2C9, sequence (P11712 whole entry): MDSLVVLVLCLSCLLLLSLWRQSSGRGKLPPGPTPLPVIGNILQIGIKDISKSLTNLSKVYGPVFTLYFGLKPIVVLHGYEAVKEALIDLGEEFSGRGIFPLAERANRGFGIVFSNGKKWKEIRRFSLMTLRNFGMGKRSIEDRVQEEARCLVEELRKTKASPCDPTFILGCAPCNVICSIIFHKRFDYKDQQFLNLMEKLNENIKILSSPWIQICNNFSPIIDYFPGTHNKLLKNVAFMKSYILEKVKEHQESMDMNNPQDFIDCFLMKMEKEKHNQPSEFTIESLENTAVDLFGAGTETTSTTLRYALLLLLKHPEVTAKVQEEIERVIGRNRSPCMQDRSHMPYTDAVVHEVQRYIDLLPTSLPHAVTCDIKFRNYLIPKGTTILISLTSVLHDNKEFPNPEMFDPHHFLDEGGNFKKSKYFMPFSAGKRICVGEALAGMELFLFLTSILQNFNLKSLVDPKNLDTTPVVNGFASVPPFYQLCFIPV
hERG potassium channel, sequence (Q12809 whole entry): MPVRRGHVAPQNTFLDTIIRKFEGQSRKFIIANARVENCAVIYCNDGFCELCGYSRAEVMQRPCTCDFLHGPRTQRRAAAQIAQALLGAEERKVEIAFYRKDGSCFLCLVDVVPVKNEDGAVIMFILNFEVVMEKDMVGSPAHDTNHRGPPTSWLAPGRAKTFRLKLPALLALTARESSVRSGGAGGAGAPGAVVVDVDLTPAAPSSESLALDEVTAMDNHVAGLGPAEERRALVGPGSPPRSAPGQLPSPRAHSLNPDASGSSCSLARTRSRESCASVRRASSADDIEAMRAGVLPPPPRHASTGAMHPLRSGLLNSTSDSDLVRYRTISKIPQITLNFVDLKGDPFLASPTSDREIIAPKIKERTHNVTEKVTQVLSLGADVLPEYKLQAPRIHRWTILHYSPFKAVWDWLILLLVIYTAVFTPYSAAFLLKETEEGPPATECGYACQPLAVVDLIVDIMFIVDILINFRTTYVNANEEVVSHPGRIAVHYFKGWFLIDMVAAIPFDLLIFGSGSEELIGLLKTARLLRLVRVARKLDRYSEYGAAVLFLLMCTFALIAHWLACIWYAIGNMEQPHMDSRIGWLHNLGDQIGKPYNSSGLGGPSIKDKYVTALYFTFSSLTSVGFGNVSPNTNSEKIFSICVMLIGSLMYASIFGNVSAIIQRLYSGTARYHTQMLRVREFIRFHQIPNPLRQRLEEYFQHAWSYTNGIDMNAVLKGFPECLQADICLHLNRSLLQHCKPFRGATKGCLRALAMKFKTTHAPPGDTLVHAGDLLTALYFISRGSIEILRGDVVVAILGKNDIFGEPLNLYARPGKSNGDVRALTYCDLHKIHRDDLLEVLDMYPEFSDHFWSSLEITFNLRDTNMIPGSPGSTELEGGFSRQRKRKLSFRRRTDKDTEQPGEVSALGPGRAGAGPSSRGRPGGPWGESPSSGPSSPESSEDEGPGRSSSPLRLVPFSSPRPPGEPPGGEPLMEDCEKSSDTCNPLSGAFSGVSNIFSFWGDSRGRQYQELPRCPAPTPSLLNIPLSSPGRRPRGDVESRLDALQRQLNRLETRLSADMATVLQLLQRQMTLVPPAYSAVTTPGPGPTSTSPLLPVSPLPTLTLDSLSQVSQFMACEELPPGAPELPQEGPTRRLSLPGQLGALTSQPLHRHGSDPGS

Structure (SMILES)	pIC50 (cytochrome P450 2C9)	inhibition at 10 µM (hERG potassium channel) [%]
CC(=O)C1=C(C)N(c2cccc(C(F)(F)F)c2)C(=O)N(C)[C@@H]1c1ccc(C#N)cc1-c1ccc(=O)n(C)c1 [Example 16, 4-[(R)-5-Acetyl-3,6-dimethyl-2-oxo-1-(3-trifluoromethyl-phenyl)-1,2,3,4-tetrahydro-pyrimidin-4-yl]-3-(1-methyl-6-oxo-1,6-dihydro-pyridin-3-yl)-benzonitrile]	< 4.30	8
CNC(=O)c1cc(C#N)ccc1[C@@H]1C(C(C)=O)=C(C)N(c2cccc(C(F)(F)F)c2)C(=O)N1C [Example 13.1]	< 4.30	
